Assays:
Assay type in all cases: in vivo, human
[1] = Saxagliptin clinical trials (Trial A and Trial B): HbA1c response by SNP genotype
Description: The association between the SNPs and the response to saxagliptin was evaluated in two ways. SNPs from the genome-wide SNP panel were tested for association with response to DPP-IV inhibitors by two analytical methodologies. In one method, SNPs were identified with significant differences in mean HBA1C response among individuals with different genotypes on treatment, taking into account covariates such as demographic differences with an analysis of covariance (ANCOVA) statistical model. SNPs with consistent in their effect on HBA1C in both trials were considered for further evaluation. In a second method, SNPs were examined for association with response cluster. SNPs consistently associated with response cluster in both trials were further evaluated for influence on fasting glycosylated hemoglobin or glucose levels using analysis of covariance. Sample: Subjects in BMS clinical trials, (Trial A and Trial B) receiving DPP-IV inhibitor ([…]) therapy. All subjects have diabetes and the study group was mixed with respect to age, race and duration of diabetes. Measures: Single nucleotide polymorphisms (SNPs) in a genome-wide panel were genotyped on all subjects essentially as described in Example 1. […] The SNPs that were genotyped likely represent a sample of the polymorphic variation in each gene and are not exhaustive with regard to coverage of the total genetic variation that may be present in each gene. The SNP for which a statistical association to DPP-IV inhibitor-dependent metabolic abnormalities was confirmed is provided in Table III. Statistical Analyses: Initial analysis to determine SNP association with cluster membership was performed using the genotypic test (2-degrees of freedom) implemented in the program PLINK (Purcell et al., 2007 Amer. Journ. Hum […]: a tool set for whole-genome association and population-based linkage analyses). […] Follow-up analysis was performed employing a statistical package, SPSS v.14 (SPSS Inc. Chicago, Ill.). Some SNP associations were also discovered or confirmed using an ANCOVA modeling approach as described below. SNPs that were associated with differential genotype response were identified by a significant difference in HBA1C response (P<=0.05) in two independent trials. Analysis was performed employing a statistical package, SAS v. 8.2 (SAS Institute Inc., Cary, N.C.). […] Baseline glycosylated hemoglobin (HbA1c) and change in HbA1c after twelve weeks (study A) or twenty-four weeks (study B) of DPP-IV inhibitor therapy for each individual were used in this analysis. […] This process was iteratively repeated until all individuals were clustered into groups, either non-responders (poor response to saxagliptin therapy) or super responders (response to saxagliptin therapy). The two-step clustering routine implemented in SPSS version 12 (Chicago, Ill., US) was used. Differences in means between clusters for HbA1c were evaluated using Kruskal-Wallis test. […] The ANCOVA model provides an estimate of mean final HbA1C after treatment for different genotypes, taking into account clinical and demographic information. […] The SNP genotype was included in the model and the difference in HbA1c was estimated between wildtype homozygous and heterozygous or rare homozygous individuals. SNPs that were associated with differential genotype response were identified by a significant (P<=0.05) difference (in the same direction) in HBA1C response between genotypes in two independent trials. Analysis was performed using contrast estimates with the GLM procedure in SAS v. 8.2 (SAS Institute Inc., Cary, N.C.).

[2] = Saxagliptin clinical trials: fasting glucose response by GRINL1A genotype
Description: (§1) SNPs from the genome-wide SNP panel were tested for association with response to DPP-IV inhibitors by two analytical methodologies. In one method, SNPs were identified with significant differences in mean HBA1C response among individuals with different genotypes on treatment, taking into account covariates such as demographic differences with an analysis of covariance (ANCOVA) statistical model. SNPs with consistent in their effect on HBA1C in both trials were considered for further evaluation. In a second method, SNPs were examined for association with response cluster. SNPs consistently associated with response cluster in both trials were further evaluated for influence on fasting glycosylated hemoglobin or glucose levels using analysis of covariance.
(§2) Sample: Subjects in BMS clinical trials, (Trial A and Trial B) receiving DPP-IV inhibitor (saxigliptin) therapy. All subjects have diabetes and the study group was mixed with respect to age, race and duration of diabetes. Measures: Single nucleotide polymorphisms (SNPs) in a genome-wide panel were genotyped on all subjects essentially as described in Example 1. […] The SNPs that were genotyped likely represent a sample of the polymorphic variation in each gene and are not exhaustive with regard to coverage of the total genetic variation that may be present in each gene. […] Statistical Analyses: Initial analysis to determine SNP association with cluster membership was performed using the genotypic test (2-degrees of freedom) implemented in the program PLINK (Purcell et al., 2007 Amer. Journ. Hum Genet. 81: 559-75. PLINK: a tool set for whole-genome association and population-based linkage analyses). […] Follow-up analysis was performed employing a statistical package, SPSS v.14 (SPSS Inc. Chicago, Ill.). […] SNPs that were associated with differential genotype response were identified by a significant difference in HBA1C response (P<=0.05) in two independent trials. Analysis was performed employing a statistical package, SAS v. […] Differences in means between clusters for HbA1c were evaluated using Kruskal-Wallis test.

[3] = Saxagliptin clinical trials: AUC glucose response by GRINL1A genotype
Description: as §1, §2

SMILES: N#C[C@@H]1C[C@@H]2C[C@@H]2N1C(=O)[C@@H](N)C12CC3CC(CC(O)(C3)C1)C2 [saxagliptin, (1S,3S,55)-2-[(2S)-2-amino-2-(3-hydroxytricyclo[3.3.1.1^3,7]dec-1-yl)-1-oxoethyl]-2-azabicyclo[3.1.0]hexane-3-carbonitrile]
- mean change in HbA1c levels ([1]; FIG. 9, GRINL1A position 87,992, reference carriers vs SNP variant carriers): higher reduction in mean glycosylated hemoglobin
- mean change in HbA1c levels ([1]; FIG. 12, HSD11B1 position 34,403, reference carriers vs SNP carriers): higher reduction in mean glycosylated hemoglobin
- mean change in HbA1c levels ([1]; FIG. 13, CHST10 position 24,707, reference carriers vs SNP carriers): higher reduction in mean glycosylated hemoglobin
- mean change in HbA1c levels ([1]; FIG. 14, CHST10 position 34,078, reference carriers vs SNP carriers): higher reduction in mean glycosylated hemoglobin
- mean change in HbA1c levels ([1]; FIG. 15, CHST10 position 35,799, reference carriers vs SNP carriers): higher reduction in mean glycosylated hemoglobin
- mean change in HbA1c levels ([1]; FIG. 16, CHST10 position 38,709, reference carriers vs SNP carriers): higher reduction in mean glycosylated hemoglobin
- mean change in HbA1c levels ([1]; FIG. 17, CHST10 position 38,947, reference carriers vs SNP carriers): higher reduction in mean glycosylated hemoglobin
- mean change in HbA1c levels ([1]; FIG. 18, CHST10 position 41,180, reference carriers vs SNP carriers): higher reduction in mean glycosylated hemoglobin
- mean change in HbA1c levels following saxagliptin treatment ([1]; Trial A and Trial B, variant SNP carriers at positions 24,707, 34,078, 35,799, 38,709, 38,947 or 41,180 of SEQ ID NO: 5 (CHST10), compared with reference allele homozygotes): little change in HbA1c levels
- mean HbA1C in response to therapy ([1]; homozygous reference allele (T/T) vs heterozygous (T/C) individuals at position 26,472 of SEQ ID NO: 63 or 64 (TEKT5), both trials): lower mean HbA1C in response to therapy than heterozygous individuals
- mean change in HbA1c levels following saxagliptin treatment ([1]; reference allele homozygotes at position 34,403 of SEQ ID NO: 3 or 4 (HSD11B1), compared to carriers of the variant allele): greaterreduction in mean HbA1c levels
- mean change in HbA1c levels following saxagliptin treatment ([1]; subjects homozygous for the reference allele (T/T) at position 87,992 of SEQ ID NO: 1 or 2 (GRINL1A)): significant reduction in mean HbA1c levels
- mean change in HbA1c levels following saxagliptin treatment ([1]; variant SNP carriers (C/T or C/C) at position 87,992 of SEQ ID NO: 1 or 2 (GRINL1A)): little change in HbA1c levels
- mean change in HbA1c levels following saxagliptin treatment ([1]; variant SNP carriers at position 34,403 of SEQ ID NO: 3 or 4 (HSD11B1)): little change in HbA1c levels
- mean change in fasting glucose levels ([2]; FIG. 10, GRINL1A position 87,992, reference carriers vs SNP carriers): higher reduction in mean fasting glucose levels
- mean change in fasting glucose levels following saxagliptin treatment ([2]; subjects homozygous for the reference allele (T/T) at position 87,992 of SEQ ID NO: 1 (GRINL1A), compared to carriers of the variant allele): significant reduction in the mean fasting glucose levels
- mean change in fasting glucose levels following saxagliptin treatment ([2]; variant SNP carriers (C/T or C/C) at position 87,992 of SEQ ID NO: 1 (GRINL1A), compared with matched placebo controls): little change in the fasting glucose levels
- mean change in AUC Glucose levels ([3]; FIG. 11, GRINL1A position 87,992, reference carriers vs SNP carriers): higher reduction in AUC Glucose levels
- mean change in AUC glucose levels following saxagliptin treatment ([3]; GRINL1A variant SNP carriers): little change in the AUC glucose levels
- mean change in AUC glucose levels following saxagliptin treatment ([3]; those homozygous for the GRINL1A reference allele): significant reduction in the AUC glucose levels

— patent publication US20110152340A1, “Methods for Identifying Subjects With an Increased Likelihood of Responding to DPP-IV Inhibitors” (BRISTOL-MYERS SQUIBB COMPANY, priority 2008, published 2011)
